Reference: patent publication US5283343A, “2-aryl substituted N-acetyltryptamines and process of preparing such” (priority 1991, dated 1994)
“Also recorded” adds a separate entry of the source.

Columns and labels:
[1] = Behavioral despair (forced swimming) test for antidepressants, albino Swiss ND/4 mice; format: in vivo, mouse (male albino Swiss ND/4); details: for Duration of Immobility: albino Swiss ND/4 mice, 30 mg/kg; for change in time of immobility (in words): albino Swiss mice, noon or midnight
Excerpt: (§1) Methods: Typical and atypical antidepressants reduce the time during which mice are immobile in a forced swimming test. [Porsolt et al., Arch. Int. Pharmacodun. Ther. 229:327-336 (1977)]. This test, known as the behavioral despair test, appears to be a good predictor of clinical antidepressant activity.
(§2) Male albino Swiss ND/4 mice and C3H/HeN mice (4 to 5 weeks old) were purchased from Harlam Sprague Dawley (Indianapolis, Ind.). […] The animals were kept in the same facilities at least two weeks before the experiment to allow them to adapt to a 14/10 hour light/dark cycle (lights on at 4 a.m./off at 6 p.m.).
(§3) Mice were housed in groups of 10 in polycarbonate plastic cages 137/8×85/8×51/8 inches with 88 square inches of floor space) with free access to feed (Agway 3000 rat, mouse and hamster feed) and water. During the light period, light intensity at the level of the cages was about 250 lux. The room temperature was kept constant at 22±1° C. The present series of experiments were conducted between October, 1986 and January, 1987.
(§4) The day of the experiment, mice were weighed, marked on the tail and placed in cages (8 mice per cage) as described above. Animals were transferred to the laboratory where the swim test was to be conducted at 10:00 a.m. for noon experiments and at 5:00 p.m. for evening experiments. For noon experiments, the swim test was started at 12:00 h and for midnight experiments, the swim test was started at 24:00 h. Two mice obtained from different experimental groups were tested simultaneously.
(§5) Apparatus: The apparatus consisted of two glass beakers (height: 13 cm; diameter: 11.5 cm), each placed inside a bigger glass beaker (height: 20 cm; diameter: 12.4 cm) containing 6 cm of water at 23±1° C. A non-transparent panel placed between the two cylinders prevented the mice from seeing each other. At midnight, experiments were conducted under red dim light (Kodak, filter A) provided by two photographic safety lights located at each side of the beakers.
(§6) Drugs: Mice were injected with vehicle or drugs dissolved in vehicle dissolved at the appropriate concentrations. Each mouse received 0.1 ml of liquid/10 g body weight. Drugs were dissolved immediately before the experiment. Desipramine was obtained from Sigma (St. Louis, Mo.) and dissolved in water. […] Bright light was administered with a fluorescent lamp placed one foot above the mice.
(§7) Methods The swim test was conducted as described by Porsolt et al. [Arch. Int. Pharmacodyn. 229:327-336 (1977)]. Forced swim in a narrow cylinder induced a depressed state characterized by an immobile posture, which is readily identifiable. A mouse is considered to be immobile when it ceases struggling and remains floating motionless in the water, making only those movements necessary to keep its head above water. […] Two mice that had received different treatments were observed simultaneously. Mice were dropped into the cylinders and left in the water for 6 minutes. The time of immobility was recorded during the last 4 minutes of swimming.

[2] = Behavioral despair (forced swimming) test for antidepressants, C3H/HeN mice; format: in vivo, mouse (C3H/HeN)
Excerpt: as §1, §2, §3, §4, §5, §6, §7

melatonin receptor [3] = biological target: T1, melatonin receptor (Oryctolagus cuniculus, UniProt G1SUP2); assay: Melatonin receptor assay: calcium-dependent/stimulation-evoked release of 3H-dopamine from rabbit retina (Dubocovich assay); format: biochemical; details: for effect on melatonin concentration-response curves / melatonin-induced inhibition of calcium-dependent 3H-DA release: compound present during S1 and S2, 0.1, 1 or 10 μM, FIGS. 3a, 3b
T1 sequence (G1SUP2 1-362): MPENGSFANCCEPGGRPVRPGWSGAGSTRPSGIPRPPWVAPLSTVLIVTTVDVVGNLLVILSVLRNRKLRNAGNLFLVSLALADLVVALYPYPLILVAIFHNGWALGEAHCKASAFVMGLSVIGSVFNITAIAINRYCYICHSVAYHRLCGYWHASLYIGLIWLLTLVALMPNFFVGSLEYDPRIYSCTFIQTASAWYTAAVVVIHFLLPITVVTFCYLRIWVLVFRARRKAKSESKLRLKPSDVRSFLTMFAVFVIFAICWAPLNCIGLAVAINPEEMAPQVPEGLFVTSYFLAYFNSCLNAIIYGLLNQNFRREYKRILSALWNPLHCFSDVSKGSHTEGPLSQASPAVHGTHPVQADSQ
Description: Briefly, dopamine release was elicited in vitro by electrical field stimulation (3 Hz, 1 min. 20 mA, […].) of rabbit retinal pieces which had been prelabeled with ^3 H-dopamine. Release was determined as the percentage of total tissue radioactivity that was released during stimulation(s) minus the spontaneous release level determined before and after stimulation. Two periods of stimulation (S1 and S2) were applied 40 minutes apart in each experiment. Results are expressed as the ratio of release in S2 to release in S1 (FIG. 1.).
Drugs are added 20 minutes before the second stimulation to test their effect on the spontaneous and stimulation evoked release of ^3 H-dopamine.
First, the compounds (antagonists) were tested alone to determine their effect on spontaneous and stimulated release of dopamine (FIG. 2a.).
The compound of Example A was present during both S1 and S2 at a concentration of 0.1 μM, 1 μM, or 10 μM. Control is .largecircle..

melatonin receptor [4] = biological target: T1, melatonin receptor; details: in vitro, Dubocovich literature; cited from earlier work
melatonin receptor [5] = details: rabbit or chicken retina, Dubocovich 1985; cited from earlier work
[6] = C3H/HeN mice, 3.00 mg/kg, midnight, control 67.7 ± 2.15
[7] = C3H/HeN mice, 3.00 mg/kg, noon, control 47.7 ± 3.4
[8] = C3H/HeN mice, 10.00 mg/kg, midnight, control 67.7 ± 2.15
[9] = C3H/HeN mice, 10.00 mg/kg, noon, control 47.7 ± 3.4
[10] = C3H/HeN mice, .03 mg/kg, midnight, control 67.7 ± 2.15
[11] = C3H/HeN mice, .03 mg/kg, noon, control 47.7 ± 3.4
[12] = C3H/HeN mice, noon and midnight

| Compound | Duration of Immobility ([1]; midnight, control 84.3 ± 11.2) [s] | Duration of Immobility ([1]; noon, control 72.4 ± 4.9) [s] | change in time of immobility (in words) [1] | Duration of Immobility [2, 6] [s] | Duration of Immobility [2, 7] [s] | Duration of Immobility [2, 8] [s] | Duration of Immobility [2, 9] [s] | Duration of Immobility [2, 10] [s] | Duration of Immobility [2, 11] [s] | change in time of immobility (in words) [2, 12] | other results |
| --- | --- | --- | --- | --- | --- | --- | --- | --- | --- | --- | --- |
| CNCCCN1c2ccccc2CCc2ccccc21 [Desipramine] | 46.0 ± 1.3 | 38.2 ± 5.1 | same decrease in time of immobility in the behavioral despair test at noon and at midnight | 16.1 ± 6.0 | 20.7 ± 3.7 | 13.2 ± 7.2 | 20.7 ± 2.0 | 33.2 ± 7.3 | 46.2 ± 12.9 | more potent to reduce the time of immobility at midnight than at noon | – |
| CC(=O)NCCc1c(Cc2ccccc2)[nH]c2ccccc12 [Example N-0774, 2-benzyl-N-acetyl tryptamine] | 81.4 ± 3.9 | 57.4 ± 8.9 | neither melatonin nor the melatonin receptor antagonist N-0074 modified the time of immobility | 16.1 ± 5.2 | 37.4 ± 6.6 | 13.1 ± 3.6 | 52.1 ± 6.8 | 47.7 ± 4.7 | 53.8 ± 8.8 | reduces the time of immobility in a dose-dependent fashion, the effect being more pronounced at midnight than at noon | estimated KB (affinity constant from the Schild plot) (melatonin receptor [3]; antagonist against melatonin, rabbit retina, antagonist 0.1, 1 or 10 μM in S1 and S2): 20 µM; direct effect on spontaneous dopamine release (Sp2/Sp1) (melatonin receptor [3]; compound alone, 0.1-10 μM, FIG. 2a, listed as Example A): little or no direct effects; also recorded: did not modify the control ratio Sp2 /Sp1; direct effect on stimulated (calcium-dependent) dopamine release (S2/S1) (melatonin receptor [3]; compound alone, 0.1-10 μM, FIG. 2b, listed as Example A): little or no direct effects; also recorded: did not modify the control ratio; effect on melatonin concentration-response curves / melatonin-induced inhibition of calcium-dependent 3H-DA release (melatonin receptor [3]; listed as Example A): shifted in parallel to the right; effect on melatonin concentration-response curves / melatonin-induced inhibition of calcium-dependent 3H-DA release (melatonin receptor [3]; listed as Luzindole (N-0774)): antagonization of melatonin-induced inhibition; activity at melatonin receptors (conclusion) (melatonin receptor [3]; rabbit retina): potent, competitive antagonist at melatonin receptors; Duration of Immobility ([2]; Table 4, 10 mg/kg, midnight, control 67.7 ± 2.15, strain not given): 16.1 ± 5.20 s; change in time of immobility (in words) ([2]; midnight, compared with bright light): decreases the time of immobility |
| COc1ccc2[nH]cc(CCNC(C)=O)c2c1 [Melatonin, 5-methoxy-N-acetyl tryptamine] | – | – | neither melatonin nor the melatonin receptor antagonist N-0074 modified the time of immobility | – | – | – | – | – | – | did not change the time of immobility | Duration of Immobility ([2]; C3H/HeN mice, 30 mg/kg, Noon (In-Darkness Administration), control 29.5 ± 3.34): 48.2 ± 5.02 s; Duration of Immobility ([2]; C3H/HeN mice, 30.00 mg/kg, midnight, control 67.7 ± 2.15): 57.9 ± 9.0 s; Duration of Immobility ([2]; C3H/HeN mice, 30.00 mg/kg, noon, control 47.7 ± 3.4): 45.9 ± 18.0 s; change in time of immobility (in words) ([2]; C3H/HeN mice, noon, in-darkness administration): increased the time of immobility; inhibition of calcium-dependent release of 3H dopamine from rabbit retina (melatonin receptor [4]): inhibit dopamine release; also recorded: picomolar concentrations |
| CC(=O)NCCc1c[nH]c2ccccc12 [N-acetyl tryptamine] | – | – | – | – | – | – | – | – | – | – | melatonin receptor antagonist property (melatonin receptor [5]): melatonin receptor antagonist |
